Laboratory results: patent US20020012979A1, “VITAMIN C PRODUCTION IN MICROORGANISMS AND PLANTS” (priority 1998, published 2002)

System: strain NA45-3 (ATCC 209681)
Test: Effect of magnesium on AA production from substrates by strain NA45-3
Type: cell-based, Prototheca moriformis
Conditions: 24 hours; for conversion to AA, effect of magnesium in the resuspension buffer: NA45-3 grown Mg-limited, substrate 20 g/L

SMILES | conversion to AA, effect of magnesium in the resuspension buffer | AA accumulation by cells grown under magnesium-sufficient conditions (NA45-3, substrate 20 g/L, regardless of magnesium in resuspension broth)
O=C[C@@H](O)[C@@H](O)[C@H](O)[C@H](O)CO [D-mannose] | unaffected | –
O=C1O[C@H]([C@@H](O)CO)[C@@H](O)[C@@H]1O [L-galactono-γ-lactone] | unaffected | enhanced
